Several values for one entry are separate records, joined by “and”; a condition that tells them apart may be missing. Identical values can stand only once.
System: A2780 ovarian carcinoma cells
Assay: Phosphatidylserine exposure assay (FITC-Annexin V / propidium iodide, flow cytometry)
Assay type: cell-based
Experimental: • Figure 1 represents the chemical structure of ingrilimine according to compound (Illa) formula. • Figure 2 represents the cytotoxic activity of ingrilimine. A2780 ovarian and HT29 colorectal carcinoma cells were grown in RPMI 1640 supplemented with 10% fetal calf serum (FCS) and 1% glutamine. U87-MG glioblastoma cells were grown in Dulbecco minimal essential medium containing 4.5 g/L glucose, 10% FCS and 1% glutamine at 37 °C in a humidified atmosphere containing 5% CO2. For IC50 determination, the cells were seeded in 96-well plates (3 × 10^3 cells/well) containing 90 µL of growth medium. After 24 h of culture, the cells were treated with ingrilimine at 10 different final concentrations. Cell viability was determined by luminescence after 72 h incubation. (a) Effect of ingrilimine on A2780 ovarian carcinoma cells. (b) Effect of ingrilimine on U87-MG glioblastoma cells. (c) Effect of ingrilimine on U87-MG glioblastoma cells • Figure 3a-3f represent the mitochondrial dysfunction provoked by ingrilimine. […] Sector Q normal cells that accumulated the JC-1 dye (fluorescence emission 590 nm). […] (a) Non-treated cells incubated with the carrier (DMSO) for 24 h. (b) HCT116 cells incubated with 10 nN ingrilimine for 24 h. (c) HCT116 cells incubated with 250 nM ingrilimine for 24 h. (d) Non-treated cells incubated with the carrier (DMSO) for 48 h. (e) HCT116 cells incubated with 10 nN ingrilimine for 48 h. (f) HCT116 cells incubated with 250 nM ingrilimine for 48. Changes in fluorescence emission were recorded by flow cytometry using the JC-1 mithocondrial membrane potential-dependent fluorescent dye. NT = non-treated cells; IngX = ingrilimine. • Figure 4a-4f represents phosphatidylserine exposure provoked by ingrilimine. […] Quadrants D1 and D2 with dead or necrotic cells, quadrant D3 with normal cells and quadrant D4 with apoptotic cells following phosphatidylserine exposure. (a) Non-treated A2780 cells incubated with the carrier (DMSO) for 24h. (b) A2780 cells incubated with 10 nM ingrilimine for 24 h. (c) A2780 cells incubated with 250 nM ingrilimine for 24 h. (d) Non-treated A2780 cells incubated with the carrier (DMSO) for 48 h. (e) A2780 cells incubated with 10 nM ingrilimine for 48 h. (f) A2780 cells incubated with 250 nM ingrilimine for 48. […] exposure in A2780 cell was quantified by flow cytometry using FITC-Annexin V. Dead or necrotic cells were detected using the vital dye propridium iodide. NT = non-treated cells; IngX = ingrilimine. • Figure 5 represents the antagonistic activity of ingrilimine (named "IngX" in the figure) and portimine (named "Port A" in the figure) against nicotinic acetylcholine receptors recorded by two-electrodes voltage clamp electrophysiology on Xenopus laevis oocytes. Clamped Xenopus laevis oocytes having incorporated the muscle (α1)2βγδ nAChR subtype from Torpedo marmorata (filled squares), or expressing the neuronal α3β2 nAChR subtype from rat (filled triangles), or expressing the human neuronal α7 nAChR subtype (filled circles) were exposed to portimine (100 nM - 1 mM) for 45 seconds. […] A Xenopus laevis oocyte expressing the human α7 nAChR subtype was exposed to 100 µM acetylcholine triggering the immediate opening of the receptor's channel (black bold line) followed by the very-fast closure of the channel ([…]) that became insensitive to acetylcholine during the rest of the 5 seconds exposure (desensitization). When a Xenopus laevis oocyte expressing the human α7 nAChR subtype was exposed first to 10 nM ingrilimine for 45 seconds and then to a mixture (Mix) containing 10 nM ingrilimine and 100 µM acetylcholine, the receptor's channel was closed denoting a strong antagonistic activity of the tested toxin against the α7 nAChR subtype (dotted line). […]

## C=CC1=C[C@@H]2[C@@H]3O[C@]4(CC[C@H](O4)[C@@H](C)C[C@@H](O)C3=O)C[C@H](O)C3=NCC[C@@]32CC1 [Portimine-A]
1 nM, 24 h, early apoptotic cells (annexin V positive, propidium iodide negative)
  Annexin V+/IP: 3.4%
1 nM, 48 h
  Annexin V+/IP: 1.7%
5 nM, 24 h
  Annexin V+/IP: 6.4%
5 nM, 48 h
  Annexin V+/IP: 18.4%
10 nM, 24 h
  Annexin V+/IP: 13.1%
10 nM, 48 h
  Annexin V+/IP: 24.1%
20 nM, 24 h
  Annexin V+/IP: 13%
  percentage of late-stage apoptotic cells and or necrotic cells: 4.3%
20 nM, 48 h
  percentage of late-stage apoptotic cells and or necrotic cells: 15%
20 nM, 48 h, listed as Portimine
  Annexin V+/IP: 39% and 39.3%
50 nM, 24 h
  Annexin V+/IP: 22.8%
50 nM, 48 h treatment, quadrant D3
  viable cells: 40%

## C=CC1=C[C@@H]2C[C@@H](O)[C@@H](O)/C(C)=C/C/C(C)=C/CCC3=NCCC[C@]32CC1 [Ingrilimine, ingrilimine]
10 nM, 24 h
  Annexin V+/IP: 1.1%
10 nM, 48 h
  Annexin V+/IP: 0.8%
50 nM, 24 h
  Annexin V+/IP: 3.4%
50 nM, 48 h
  Annexin V+/IP: 10%
100 nM, 24 h
  Annexin V+/IP: 9.8%
100 nM, 48 h
  Annexin V+/IP: 20.4%
250 nM, 24 h
  Annexin V+/IP: 13.1%
250 nM, 24 h, listed as ingrilimine
  Annexin V+/IP: -13%
250 nM, 24 h, quadrant D2, late stage apoptotic, dead or necrotic cells
  percentage of propidium iodide positive and annexin V positive: 3.8%
250 nM, 48 h
  Annexin V+/IP: 31.3%
250 nM, 48 h, quadrant D2
  percentage of propidium iodide positive and annexin V positive: 17%
500 nM, 24 h
  Annexin V+/IP: 27.1%
Homo sapiens, A2780, 48 h, read-out: viable cells
  viability at 0.25 µM: 45%

Source: patent EP4624457A1, “I[…] DERIVATIVES, I[…] NEURODEGENERATIVE DISEASES” (Centre National de la Recherche Scientifique, priority 2024, dated 2025)
